Experimental data as given in PubChem BioAssay AID272 (DTP/NCI, 2004).
“And” between values parts separate entries of the source, which are not always exact repeats. Identical values can stand only once. Records with an inconclusive call do not appear. The calls were made as follows: active = survival T/C of 150% or more; inactive = T/C below 125% in these data.

System: Lewis lung carcinoma i.m., BDF1 mice, T/C %
Assay: NCI In Vivo Anticancer Drug Screen. Data for tumor model Lewis Lung Carcinoma (intramuscular) in B6D2F1 (BDF1) mice
Summary of the method: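 Transplantable tumour model; readout survival or tumour size; value = treated (T) / vehicle control (C).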

Measured: T/C

Cc1c(N)nc([C@H](CC(N)=O)NC[C@H](N)C(N)=O)nc1C(=O)N[C@H](C(=O)N[C@H](C)[C@@H](O)[C@H](C)C(=O)N[C@H](C(=O)NCCc1nc(-c2nc(C(=O)NCCC[S+](C)C)cs2)cs1)[C@@H](C)O)C(OC1OC(CO)C(O)C(O)C1OC1OC(CO)C(O)C(OC(N)=O)C1O)c1cnc[nH]1 (some centres not stated)
inactive: endpoint: median survival time, dose: 2.5 mg/kg/injection, schedule: Q01DX014 (ip), vehicle: saline, higher = longer survival 113 % of control | endpoint: median survival time, dose: 3.0 mg/kg/injection, schedule: Q01DX004 (ip), vehicle: saline, higher = longer survival 116 % of control | endpoint: median survival time, dose: 3.0 mg/kg/injection, schedule: Q09DX009 (ip), vehicle: saline, higher = longer survival 119 % of control and 120 % of control | endpoint: median survival time, dose: 4.0 mg/kg/injection, schedule: Q01DX011 (ip), vehicle: saline, higher = longer survival 119 % of control | endpoint: median survival time, dose: 5.0 mg/kg/injection, schedule: Q01DX004 (ip), vehicle: saline, higher = longer survival 123 % of control | endpoint: median survival time, dose: 5.0 mg/kg/injection, schedule: Q01DX014 (ip), vehicle: saline, higher = longer survival 123 % of control | endpoint: median survival time, dose: 8.4 mg/kg/injection, schedule: Q01DX004 (ip), vehicle: saline, higher = longer survival 123 % of control | endpoint: median survival time, dose: 8.4 mg/kg/injection, schedule: Q01DX009 (ip), vehicle: none, higher = longer survival 113 % of control and 115 % of control | endpoint: median survival time, dose: 8.4 mg/kg/injection, schedule: Q09DX009 (ip), vehicle: saline, higher = longer survival 116 % of control | endpoint: median survival time, dose: 10.0 mg/kg/injection, schedule: Q01DX014 (ip), vehicle: saline, higher = longer survival 124 % of control | endpoint: median survival time, dose: 10.0 mg/kg/injection, schedule: Q04DX003 (ip), vehicle: saline, higher = longer survival 107 % of control and 108 % of control | endpoint: median survival time, dose: 12.5 mg/kg/injection, schedule: Q04DX003 (ip), vehicle: saline, higher = longer survival 122 % of control | endpoint: median survival time, dose: 14.0 mg/kg/injection, schedule: Q04DX003 (ip), vehicle: saline, higher = longer survival 112 % of control | endpoint: median survival time, dose: 18.0 mg/kg/injection, schedule: Q04DX003 (ip), vehicle: saline, higher = longer survival 124 % of control | endpoint: median survival time, dose: 20.0 mg/kg/injection, schedule: Q01DX014 (ip), vehicle: saline, higher = longer survival 75 % of control | endpoint: median survival time, dose: 23.0 mg/kg/injection, schedule: Q01DX009 (ip), vehicle: none, higher = longer survival 64 % of control and 95 % of control | endpoint: median survival time, dose: 23.0 mg/kg/injection, schedule: Q04DX003 (ip), vehicle: saline, higher = longer survival 112 % of control | endpoint: median survival time, dose: 25.0 mg/kg/injection, schedule: Q01DX001 (ip), vehicle: saline, higher = longer survival 107 % of control | endpoint: median survival time, dose: 36.0 mg/kg/injection, schedule: Q01DX001 (ip), vehicle: saline, higher = longer survival 124 % of control | endpoint: median survival time, dose: 39.0 mg/kg/injection, schedule: Q01DX004 (ip), vehicle: saline, higher = longer survival 54 % of control | endpoint: median survival time, dose: 39.0 mg/kg/injection, schedule: Q04DX003 (ip), vehicle: saline, higher = longer survival 103 % of control and 120 % of control | endpoint: median survival time, dose: 40.0 mg/kg/injection, schedule: Q01DX014 (ip), vehicle: saline, higher = longer survival 48 % of control | endpoint: median survival time, dose: 40.0 mg/kg/injection, schedule: Q04DX003 (ip), vehicle: saline, higher = longer survival 97 % of control | endpoint: median survival time, dose: 51.0 mg/kg/injection, schedule: Q01DX001 (ip), vehicle: saline, higher = longer survival 122 % of control | endpoint: median survival time, dose: 65.0 mg/kg/injection, schedule: Q04DX003 (ip), vehicle: saline, higher = longer survival 108 % of control | endpoint: median survival time, dose: 80.0 mg/kg/injection, schedule: Q04DX003 (ip), vehicle: saline, higher = longer survival 60 % of control
14 % of control and 26 % of control: endpoint: mean tumor weight (est.), dose: 23.0 mg/kg/injection, schedule: Q01DX009 (ip), vehicle: saline, higher = larger tumour
12 % of control and 15 % of control: endpoint: mean tumor weight, dose: 5.0 mg/kg/injection, schedule: Q01DX011 (ip), vehicle: saline, higher = larger tumour
60 % of control: endpoint: mean tumor weight, dose: 3.75 mg/kg/injection, schedule: Q01DX011 (sc), vehicle: saline, higher = larger tumour
5 % of control: endpoint: mean tumor weight, dose: 23.0 mg/kg/injection, schedule: Q01DX011 (ip), vehicle: saline, higher = larger tumour
44 % of control: endpoint: mean tumor weight (est.), dose: 2.5 mg/kg/injection, schedule: Q01DX009 (ip), vehicle: saline, higher = larger tumour
51 % of control: endpoint: mean tumor weight, dose: 25.0 mg/kg/injection, schedule: Q01DX001 (ip), vehicle: saline, higher = larger tumour
19 % of control: endpoint: mean tumor weight, dose: 6.0 mg/kg/injection, schedule: Q01DX011 (ip), vehicle: saline, higher = larger tumour | endpoint: mean tumor weight, dose: 8.5 mg/kg/injection, schedule: Q01DX011 (ip), vehicle: saline, higher = larger tumour | endpoint: mean tumor weight, dose: 39.0 mg/kg/injection, schedule: Q04DX003 (ip), vehicle: saline, higher = larger tumour
56 % of control: endpoint: mean tumor weight, dose: 10.0 mg/kg/injection, schedule: Q04DX003 (ip), vehicle: saline, higher = larger tumour
12 % of control: endpoint: mean tumor weight (est.), dose: 39.0 mg/kg/injection, schedule: Q01DX009 (ip), vehicle: saline, higher = larger tumour
40 % of control: endpoint: mean tumor weight, dose: 23.0 mg/kg/injection, schedule: Q04DX003 (ip), vehicle: saline, higher = larger tumour
2 % of control and 12 % of control: endpoint: mean tumor weight, dose: 20.0 mg/kg/injection, schedule: Q01DX011 (ip), vehicle: saline, higher = larger tumour
18 % of control: endpoint: mean tumor weight, dose: 4.0 mg/kg/injection, schedule: Q01DX011 (ip), vehicle: saline, higher = larger tumour | endpoint: mean tumor weight, dose: 25.0 mg/kg/injection, schedule: Q04DX003 (ip), vehicle: saline, higher = larger tumour | endpoint: mean tumor weight, dose: 36.0 mg/kg/injection, schedule: Q04DX003 (ip), vehicle: saline, higher = larger tumour
35 % of control: endpoint: mean tumor weight, dose: 18.0 mg/kg/injection, schedule: Q04DX003 (ip), vehicle: saline, higher = larger tumour | endpoint: mean tumor weight, dose: 51.0 mg/kg/injection, schedule: Q01DX001 (ip), vehicle: saline, higher = larger tumour
24 % of control and 42 % of control: endpoint: mean tumor weight (est.), dose: 8.4 mg/kg/injection, schedule: Q01DX009 (ip), vehicle: saline, higher = larger tumour
6 % of control: endpoint: mean tumor weight, dose: 14.0 mg/kg/injection, schedule: Q01DX011 (ip), vehicle: saline, higher = larger tumour
31 % of control: endpoint: mean tumor weight, dose: 40.0 mg/kg/injection, schedule: Q04DX003 (ip), vehicle: saline, higher = larger tumour
27 % of control and 37 % of control: endpoint: mean tumor weight (est.), dose: 14.0 mg/kg/injection, schedule: Q01DX009 (ip), vehicle: saline, higher = larger tumour
38 % of control: endpoint: mean tumor weight, dose: 3.0 mg/kg/injection, schedule: Q01DX011 (ip), vehicle: saline, higher = larger tumour
7 % of control: endpoint: mean tumor weight, dose: 8.4 mg/kg/injection, schedule: Q01DX011 (ip), vehicle: saline, higher = larger tumour
active: endpoint: median survival time, dose: 2.0 mg/kg/injection, schedule: Q01DX011 (ip), vehicle: saline, higher = longer survival 153 % of control | endpoint: median survival time, dose: 3.75 mg/kg/injection, schedule: Q01DX011 (sc), vehicle: saline, higher = longer survival 158 % of control | endpoint: median survival time, dose: 5.0 mg/kg/injection, schedule: Q01DX009 (ip), vehicle: none, higher = longer survival 150 % of control and 163 % of control | endpoint: median survival time, dose: 5.0 mg/kg/injection, schedule: Q01DX011 (ip), vehicle: saline, higher = longer survival 150 % of control | endpoint: median survival time, dose: 5.0 mg/kg/injection, schedule: Q09DX009 (ip), vehicle: saline, higher = longer survival 150 % of control | endpoint: median survival time, dose: 6.5 mg/kg/injection, schedule: Q01DX011 (ip), vehicle: saline, higher = longer survival 158 % of control | endpoint: median survival time, dose: 7.5 mg/kg/injection, schedule: Q01DX011 (sc), vehicle: saline, higher = longer survival 153 % of control | endpoint: median survival time, dose: 8.0 mg/kg/injection, schedule: Q01DX011 (ip), vehicle: saline, higher = longer survival 150 % of control | endpoint: median survival time, dose: 10.0 mg/kg/injection, schedule: Q01DX011 (ip), vehicle: saline, higher = longer survival 167 % of control | endpoint: median survival time, dose: 10.8 mg/kg/injection, schedule: Q01DX011 (ip), vehicle: saline, higher = longer survival 166 % of control | endpoint: median survival time, dose: 14.0 mg/kg/injection, schedule: Q01DX009 (ip), vehicle: none, higher = longer survival 159 % of control | endpoint: median survival time, dose: 15.0 mg/kg/injection, schedule: Q01DX011 (sc), vehicle: saline, higher = longer survival 161 % of control | endpoint: median survival time, dose: 16.0 mg/kg/injection, schedule: Q01DX011 (ip), vehicle: saline, higher = longer survival 150 % of control | endpoint: median survival time, dose: 18.0 mg/kg/injection, schedule: Q01DX011 (ip), vehicle: saline, higher = longer survival 152 % of control and 170 % of control | endpoint: median survival time, dose: 20.0 mg/kg/injection, schedule: Q01DX011 (ip), vehicle: saline, higher = longer survival 165 % of control | endpoint: median survival time, dose: 20.0 mg/kg/injection, schedule: Q04DX003 (ip), vehicle: saline, higher = longer survival 157 % of control and 160 % of control | endpoint: median survival time, dose: 23.0 mg/kg/injection, schedule: Q09DX009 (ip), vehicle: saline, higher = longer survival 169 % of control | endpoint: median survival time, dose: 30.0 mg/kg/injection, schedule: Q01DX011 (ip), vehicle: saline, higher = longer survival 166 % of control
65 % of control: endpoint: mean tumor weight, dose: 36.0 mg/kg/injection, schedule: Q01DX001 (ip), vehicle: saline, higher = larger tumour
43 % of control: endpoint: mean tumor weight, dose: 20.0 mg/kg/injection, schedule: Q04DX003 (ip), vehicle: saline, higher = larger tumour
23 % of control: endpoint: mean tumor weight, dose: 7.5 mg/kg/injection, schedule: Q01DX011 (sc), vehicle: saline, higher = larger tumour | endpoint: mean tumor weight, dose: 12.5 mg/kg/injection, schedule: Q04DX003 (ip), vehicle: saline, higher = larger tumour
